The values below come from patent US20140255392A1 (BAYER INTELLECTUAL PROPERTY GMBH, priority 2011, published 2014).

One may read the IC50 as the concentration that gives 50% inhibition.

This assay addresses T1, human kinase Mps-1 (Homo sapiens, UniProt P33981).
T1 construct: N-terminally GST-tagged human full length recombinant Mps-1 kinase; GST (N); purchased Invitrogen, Karslruhe, Germany PV4071
T1 sequence (P33981 1-857): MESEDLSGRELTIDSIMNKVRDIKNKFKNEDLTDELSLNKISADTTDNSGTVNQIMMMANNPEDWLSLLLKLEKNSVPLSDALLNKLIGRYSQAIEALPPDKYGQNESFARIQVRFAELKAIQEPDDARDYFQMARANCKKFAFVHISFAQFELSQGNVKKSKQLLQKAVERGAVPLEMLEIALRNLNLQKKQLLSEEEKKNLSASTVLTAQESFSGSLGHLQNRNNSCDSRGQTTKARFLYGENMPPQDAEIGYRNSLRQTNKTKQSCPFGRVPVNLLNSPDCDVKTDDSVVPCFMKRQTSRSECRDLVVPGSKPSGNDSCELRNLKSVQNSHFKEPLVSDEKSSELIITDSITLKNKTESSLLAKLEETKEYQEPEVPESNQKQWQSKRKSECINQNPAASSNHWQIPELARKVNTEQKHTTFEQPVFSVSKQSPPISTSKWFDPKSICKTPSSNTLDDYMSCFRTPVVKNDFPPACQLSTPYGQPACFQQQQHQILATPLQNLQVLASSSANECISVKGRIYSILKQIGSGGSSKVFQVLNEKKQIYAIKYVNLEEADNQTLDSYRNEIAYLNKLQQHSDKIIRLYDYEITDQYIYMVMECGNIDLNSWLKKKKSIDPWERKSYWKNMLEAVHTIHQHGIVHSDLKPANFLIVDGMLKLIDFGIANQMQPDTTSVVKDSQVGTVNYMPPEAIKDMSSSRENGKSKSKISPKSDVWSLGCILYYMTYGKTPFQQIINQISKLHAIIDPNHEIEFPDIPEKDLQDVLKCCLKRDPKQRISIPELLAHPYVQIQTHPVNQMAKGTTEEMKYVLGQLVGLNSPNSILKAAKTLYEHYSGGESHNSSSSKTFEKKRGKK
The experiment in a line: Mps-1 kinase assay (TR-FRET). Conditions: N-terminally GST-tagged human full length recombinant Mps-1; 10 μM ATP; 1 μM peptide substrate; 60 min at 22° C. Type of assay: biochemical. In outline: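 Next, Eu-labelled anti-phospho(Ser/Thr) antibody and SA-XLent bind for 1 h at 22° C. Finally, energy transfer quantifies phosphorylated product.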
(In general: In TR-FRET formats the signal depends on donor and acceptor labels being close together.)
Regarding `CCNC(=O)c1ccc(-c2cnc3c(NCCC(F)(F)F)cc(Oc4ccc(OC(F)(F)F)cc4)cn23)cc1C` [Example 68, N-ethyl-2-methyl-4-{6-[4-(trifluoromethoxy)phenoxy]-8-[(3,3,3-trifluoropropyl)amino]imidazo[1,2-a]pyridin-3-yl}benzamide], the IC50 came to 124 nM.

For the compound `COc1ccc(Oc2cc(NCCC(F)(F)F)c3ncc(-c4ccc(C(=O)NC5CC5)c(C)c4)n3c2)c(F)c1` [Example 69, N-cyclopropyl-4-{6-(2-fluoro-4-methoxyphenoxy)-8-[(3,3,3-trifluoropropyl)amino]imidazo[1,2-a]pyridin-3-yl}-2-methylbenzamide], the IC50 turned out to be 1 nM.

As to `Cc1cc(-c2cnc3c(NCCC(F)(F)F)cc(Oc4cccc(F)c4F)cn23)ccc1C(=O)NC1(C#N)CC1` [Example 70, N-(1-cyanocyclopropyl)-4-{6-(2,3-difluorophenoxy)-8-[(3,3,3-trifluoropropyl)amino]imidazo[1,2-a]pyridin-3-yl}-2-methylbenzamide], the IC50 stood at 3.8 nM.

As to `Cc1cc(-c2cnc3c(NCCC(F)(F)F)cc(Oc4cccc(F)c4F)cn23)ccc1C(=O)NC1(C)CC1` [Example 71, 4-{6-(2,3-Difluorophenoxy)-8-[(3,3,3-trifluoropropyl)amino]imidazo[1,2-a]pyridin-3-yl}-2-methyl-N-(1-methylcyclopropyl)benzamide], the IC50 is 1.8 nM.

`CNC(=O)c1ccc(-c2cnc3c(NCCC(F)(F)F)cc(Oc4cccc(F)c4F)cn23)cc1C` [Example 72, 4-{6-(2,3-Difluorophenoxy)-8-[(3,3,3-trifluoropropyl)amino]imidazo[1,2-a]pyridin-3-yl}-N,2-dimethylbenzamide]: the IC50 came out at 0.6 nM.

For the compound `CCNC(=O)c1ccc(-c2cnc3c(NCCC(F)(F)F)cc(Oc4cccc(F)c4F)cn23)cc1C` [Example 73, 4-{6-(2,3-Difluorophenoxy)-8-[(3,3,3-trifluoropropyl)amino]imidazo[1,2-a]pyridin-3-yl}-N-ethyl-2-methylbenzamide], the IC50 turned out to be 1.2 nM.

On to `Cc1cc(-c2cnc3c(NCCC(F)(F)F)cc(Oc4cccc(OC(F)(F)F)c4)cn23)ccc1C(=O)NC1CC1` [Example 74, N-cyclopropyl-2-methyl-4-{6-[3-(trifluoromethoxy)phenoxy]-8-[(3,3,3-trifluoropropyl)amino]imidazo[1,2-a]pyridin-3-yl}benzamide], for which the IC50 amounted to 6.8 nM.

As for `Cc1cc(-c2cnc3c(NCCC(F)(F)F)cc(Oc4cccc(OC(F)(F)F)c4)cn23)ccc1C(=O)NC1(C#N)CC1` [Example 75, N-(1-cyanocyclopropyl)-2-methyl-4-{6-[3-(trifluoromethoxy)phenoxy]-8-[(3,3,3-trifluoropropyl)amino]imidazo[1,2-a]pyridin-3-yl}benzamide], the IC50 came out at 157 nM.

In the case of `Cc1cc(-c2cnc3c(NCCC(F)(F)F)cc(Oc4cccc(OC(F)(F)F)c4)cn23)ccc1C(=O)NC1(C)CC1` [Example 76, 2-Methyl-N-(1-methylcyclopropyl)-4-{6-[3-(trifluoromethoxy)phenoxy]-8-[(3,3,3-trifluoropropyl)amino]imidazo[1,2-a]pyridin-3-yl}benzamide], the IC50 was 105 nM.

Turning to `CCNC(=O)c1ccc(-c2cnc3c(NCCC(F)(F)F)cc(Oc4cccc(OC(F)(F)F)c4)cn23)cc1C` [Example 77, N-ethyl-2-methyl-4-{6-[3-(trifluoromethoxy)phenoxy]-8-[(3,3,3-trifluoropropyl)amino]imidazo[1,2-a]pyridin-3-yl}benzamide], the IC50 is 51 nM.

As for `CNC(=O)c1ccc(-c2cnc3c(NCCC(F)(F)F)cc(Oc4cccc(OC(F)(F)F)c4)cn23)cc1C` [Example 78, N,2-dimethyl-4-{6-[3-(trifluoromethoxy)phenoxy]-8-[(3,3,3-trifluoropropyl)amino]imidazo[1,2-a]pyridin-3-yl}benzamide], the 50% inhibitory concentration (IC50) stood at 30.3 nM.

As for `COc1ccccc1-c1cc(NCCC(F)(F)F)c2ncc(-c3ccc(C(=O)NC4(C)CC4)c(C)c3)n2c1` [Example 80], the IC50 turned out to be 35.6 nM.

`CNC(=O)c1ccc(-c2cnc3c(NCCC(F)(F)F)cc(-c4ccccc4OC)cn23)cc1C` [Example 81, 4-{6-(2-Methoxyphenyl)-8-[(3,3,3-trifluoropropyl)amino]imidazo[1,2-a]pyridin-3-yl}-N,2-dimethylbenzamide]: the IC50 was determined as 19.8 nM.

As for `CCNC(=O)c1ccc(-c2cnc3c(NCCC(F)(F)F)cc(-c4ccccc4OC)cn23)cc1C` [Example 82, N-ethyl-4-{6-(2-methoxyphenyl)-8-[(3,3,3-trifluoropropyl)amino]imidazo[1,2-a]pyridin-3-yl}-2-methylbenzamide], the IC50 worked out at 21.3 nM.

Regarding `Cc1cc(-c2cnc3c(NCCC(F)(F)F)cc(Oc4ccc(OC(F)(F)F)c(F)c4)cn23)ccc1C(=O)NC1CC1` [Example 83, N-cyclopropyl-4-{6-[3-fluoro-4-(trifluoromethoxy)phenoxy]-8-[(3,3,3-trifluoropropyl)amino]imidazo[1,2-a]pyridin-3-yl}-2-methylbenzamide], the IC50 worked out at 68.7 nM.

For the compound `Cc1cc(-c2cnc3c(NCCC(F)(F)F)cc(Oc4ccc(OC(F)(F)F)c(F)c4)cn23)ccc1C(=O)NC1(C#N)CC1` [Example 84, N-(1-cyanocyclopropyl)-4-{6-[3-fluoro-4-(trifluoromethoxy)phencow]-8-[(3,3,3-trifluoropropyl)amino]imidazo[1,2-a]pyridin-3-yl}-2-methylbenzamide], the IC50 worked out at 243 nM.

For the compound `Cc1cc(-c2cnc3c(NCCC(F)(F)F)cc(Oc4ccc(OC(F)(F)F)c(F)c4)cn23)ccc1C(=O)NC1(C)CC1` [Example 85, 4-{6-[3-F luoro-4-(trifluoromethoxy)phenoxy]-8-[(3,3,3-trifluoropropyl)amino]imidazo[1,2-a]pyridin-3-yl}-2-methyl-N-(1-methylcyclopropyl)benzamide], the IC50 came out at 199 nM.

For the compound `CNC(=O)c1ccc(-c2cnc3c(NCCC(F)(F)F)cc(Oc4ccc(OC(F)(F)F)c(F)c4)cn23)cc1C` [Example 86, 4-{6-[3-Fluoro-4-(trifluoromethoxy)phenoxy]-8-[(3,3,3-trifluoropropyl)amino]imidazo[1,2-a]pyridin-3-yl}-N,2-dimethylbenzamide], the IC50 is 56.7 nM.

Turning to `CCNC(=O)c1ccc(-c2cnc3c(NCCC(F)(F)F)cc(Oc4ccc(OC(F)(F)F)c(F)c4)cn23)cc1C` [Example 87, N-ethyl-4-{6-[3-fluoro-4-(trifluoromethoxy)phenoxy]-8-[(3,3,3-trifluoropropyl)amino]imidazo[1,2-a]pyridin-3-yl}-2-methylbenzamide], the IC50 amounted to 70.3 nM.

Consider `CNC(=O)c1ccc(-c2cnc3c(NCCC(F)(F)F)cc(-c4ccncc4)cn23)cc1C` [Example 88, N,2-dimethyl-4-{6-(pyridin-4-yl)-8-[(3,3,3-trifluoropropyl)amino]imidazo[1,2-a]pyridin-3-yl}benzamide], for which the IC50 was 9.8 nM.

With `CCNC(=O)c1ccc(-c2cnc3c(NCCC(F)(F)F)cc(-c4ccncc4)cn23)cc1C` [Example 89, N-ethyl-2-methyl-4-{6-(pyridin-4-yl)-8-[(3,3,3-trifluoropropyl)amino]imidazo[1,2-a]pyridin-3-yl}benzamide], the IC50 is 6.9 nM.

On to `Cc1cc(-c2cnc3c(NCCC(F)(F)F)cc(-c4ccncc4)cn23)ccc1C(=O)NC1(C)CC1` [Example 90], for which the IC50 is 15.9 nM.

For `Cc1cc(-c2cnc3c(NCCC(F)(F)F)cc(-c4ccncc4)cn23)ccc1C(=O)NC1(C#N)CC1` [Example 91, N-(1-cyanocyclopropyl)-2-methyl-4-{6-(pyridin-4-yl)-8-[(3,3,3-trifluoropropyl)amino]imidazo[1,2-a]pyridin-3-yl}benzamide], the IC50 came to 20.6 nM.

Take `C=Cc1cc(NCCC(F)(F)F)c2ncc(-c3ccc(C(=O)NC4CC4)c(C)c3)n2c1` [Example 92, N-cyclopropyl-2-methyl-4-{8-[(3,3,3-trifluoropropyl)amino]-6-vinylimidazo[1,2-a]pyridin-3-yl}benzamide]: the IC50 stood at 13.2 nM.

In the case of `C=Cc1cc(NCCC(F)(F)F)c2ncc(-c3ccc(C(=O)NC)c(C)c3)n2c1` [Example 93, N,2-dimethyl-4-{8-[(3,3,3-trifluoropropyl)amino]-6-vinylimidazo[1,2-a]pyridin-3-yl}benzamide], the IC50 came out at 68.6 nM.

As for `C=Cc1cc(NCCC(F)(F)F)c2ncc(-c3ccc(C(=O)NCC)c(C)c3)n2c1` [Example 94, N-ethyl-2-methyl-4-{8-[(3,3,3-trifluoropropyl)amino]-6-vinylimidazo[1,2-a]pyridin-3-yl}benzamide], the IC50 came to 84.3 nM.
